This is an account of results in article PMC6884575, “Suppression of FOXM1 activities and breast cancer growth in vitro and in vivo by a new class of compounds” (NPJ Breast Cancer, 2019).

The subject of one assay is MCF10A breast cell line. The assay is described as follows: Cell proliferation in non-tumorigenic MCF10A cells. Format: cell-based, human. Particulars: low level of FOXM1. The method, then:
(§1) WST-1 assay (Roche, Basel, Switzerland) was used to quantify cell viability as described.[38] Absorbance was measured at 450 nm using a VICTOR X5 PerkinElmer 2030 Multilabel Plate Reader. All assays were performed in triplicate and analyzed using Graph Pad Prism 8.0.

The next assay has as its target T1, FOXM1 (Homo sapiens, UniProt Q08050).
T1 sequence (Q08050 1-763): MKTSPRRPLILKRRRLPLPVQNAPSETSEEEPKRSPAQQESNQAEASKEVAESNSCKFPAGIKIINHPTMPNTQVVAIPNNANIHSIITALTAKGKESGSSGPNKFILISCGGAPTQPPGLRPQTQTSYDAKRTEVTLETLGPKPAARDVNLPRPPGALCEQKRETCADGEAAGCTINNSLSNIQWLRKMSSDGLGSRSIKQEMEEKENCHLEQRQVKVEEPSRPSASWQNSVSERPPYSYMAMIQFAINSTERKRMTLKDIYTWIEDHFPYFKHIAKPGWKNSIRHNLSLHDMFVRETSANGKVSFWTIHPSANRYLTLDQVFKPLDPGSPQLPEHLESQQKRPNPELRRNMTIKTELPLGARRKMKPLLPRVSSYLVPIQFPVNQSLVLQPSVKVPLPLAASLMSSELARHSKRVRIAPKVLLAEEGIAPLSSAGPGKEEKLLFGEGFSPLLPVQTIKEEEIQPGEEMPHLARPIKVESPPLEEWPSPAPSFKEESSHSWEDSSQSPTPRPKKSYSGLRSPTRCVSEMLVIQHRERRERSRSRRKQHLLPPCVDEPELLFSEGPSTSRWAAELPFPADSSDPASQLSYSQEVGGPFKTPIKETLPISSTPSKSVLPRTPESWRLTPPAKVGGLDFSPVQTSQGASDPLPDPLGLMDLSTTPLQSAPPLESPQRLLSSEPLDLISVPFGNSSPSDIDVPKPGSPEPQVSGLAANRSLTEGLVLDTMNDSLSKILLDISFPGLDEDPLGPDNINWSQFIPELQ
Briefly: Intracellular localization of FOXM1 (immunofluorescence, nuclear/cytoplasmic fractionation). Format: cell-based. The note with it: 24 h, Western blot of nuclear and cytoplasmic extracts. More on the design: endogenous in cells; host or cells: MDA-MB-231, MCF7. As to the method: In some cases, treatments with compound were done in the presence of the proteasome inhibitor MG132 (Calbiochem) as described in the figure legend. […] Band intensities were analyzed with Licor Odyssey 2.1 software. All blots shown together derive from the same experiment and were processed in parallel. Full uncropped images of blots are shown as supplementary figures in the Supplementary Information file. Molecular weight markers were Rainbow markers from GE Healthcare (38–225 kDa) or Precision Plus Dual Color Markers from Biorad (37–250 kDa).
A general note: Immunoblotting shows a protein as a band on a membrane.

The test system of a further assay is MCF7 cells. Briefly: RNA-Seq gene regulation in MCF7 cells. Format: cell-based, human. The method, then:
For gene expression analysis, total RNA was extracted from cells using Trizol reagent and further cleaned using the Turbo DNase and RNAqueous kits (ThermoFisher). Cells were treated with Veh (0.1% EtOH), or with the compounds indicated for 9 h or 24 h. Once the sample quality and replicate reproducibility were verified, samples from each group were subjected to sequencing. RNA at a concentration of 100 ng/µl in nuclease-free water was used for library construction. cDNA libraries were prepared with the mRNA-TruSeq Kit (Illumina, Inc.). In brief, the poly-A containing mRNA was purified from total RNA, the RNA was fragmented, double-stranded cDNA was generated from fragmented RNA, and adapters were ligated to the ends.
The paired-end read data from the HiSeq 4000 were processed and analyzed through a series of steps. Base calling and de-multiplexing of samples within each lane were done with Casava 1.8.2. The RNA sequences were prepared with Illumina’s TruSeq Stranded mRNAseq Sample Prep kit. Reads were trimmed of adapters and low expression data using Trimmomatic version 0.38.[42] The STAR alignment tool version 2.5.3a was used to align the sequenced reads to the GRCh37 human genome from Ensembl.[43] Gene counts were calculated using subread version 1.5.2.[44],[45] The edgeR Bioconductor package in R was used for normalization and differential expression analysis. Default normalization methods were used, specifically trimmed mean of M values or TMM was used to calculate the normalized expression values. This method calculates the weighted trimmed mean of the log expression ratios in a gene-wise fashion.[46],[47] We considered genes with fold-change > 2 and p-value < 0.05 as statistically significant, differentially expressed.

The test system of assay [1] is FOXM1 target gene expression in MCF7 cells. Briefly: FOXM1 target gene expression by qRT-PCR. Particulars: MCF7, 24 h, compound at its IC50 for proliferation. Format: cell-based, human. Background: Quantitative PCR measures a nucleic acid by following its amplification.
The test system of assay [2] is DT22 breast tumor xenografts. The assay is described as follows: DT22 human breast tumor xenograft growth in NSG mice. Format: in vivo. The method, then:
For examination of the effects of compounds on breast tumor growth suppression, intact female NOD/SCID-gamma (NSG) mice were used as detailed previously.[39] DT-22 breast cancer cells (1 × 10^6 cells/mouse) were injected s.c. into the right axial mammary gland. Mice received s.c. injection or oral gavage daily or every second or third day as indicated, with vehicle or treatment compound, and tumor volume (length × width^2/2) was monitored over time.
In general terms: A xenograft is tissue or cells of one species grown in another, often human tumour cells in immunodeficient mice.

In assay [3] the test system is human breast cancer cell lines (DT22, MCF7, T47D, BT474, MDA-MB-453, MDA-MB-468, MDA-MB-231). The assay is described as follows: Cell proliferation (WST-1) in panel of breast cancer cell lines. Format: cell-based. The method, then:
as §1

Assay [4] has as its system MDA-MB-231 and MDA-MB-453 breast cancer cells. The assay is described as follows: Cell proliferation in triple negative MDA-MB-231 and MDA-MB-453 cells. Format: cell-based. Particulars: Homo sapiens, read-out: IC50 antiproliferative. As to the method:
as §1

Turning to `Clc1ccc(C(=C2C3CC4CC(C3)CC2C4)c2ccc(OCCCCCCN3CCCC3)cc2)cc1` [NB-55], the “concentration for 50% suppression of proliferation relative to breast cancer cell lines” value with MCF10A breast cell line is reported as “five times higher”. Besides, the “intracellular localization of FOXM1” value at FOXM1 was “does not change the intracellular localization of FOXM1”. The “genes regulated that overlapped with NB-73 regulated genes” value in the assay on MCF7 cells (MCF7, 9 h, more than 2-fold, FDR < 0.05) is recorded as 72%. The “genes regulated more than 2-fold (Venn diagram)” value with MCF7 cells (MCF7, 9 h treatment, p < 0.05, FDI-6 20 µM) is 567 genes. For the same compound, in assay [1], the “expression of ATF3, a gene suppressed by FOXM1” value is reported as “increased expression of ATF3” and the “expression of FOXM1 stimulated target genes (FOXM1C, AURKB, CCNB1, PLK1)” value is on record as “significantly reduced the expression”. Also, the tumor suppression entry in assay [2] (20 or 40 mg/kg doses (data not shown)) is “only marginally effective”. The “growth of human breast tumor xenografts” value in assay [2] (DT22 tumors, NSG mice, 100 mg/kg oral gavage daily) is “very effectively suppressed the growth”. In addition, the IC50 in assay [3] (Homo sapiens, breast cancer cell lines, read-out: IC50 for inhibition of proliferation) fell in the range of 2 to 10 µM. In assay [3] (dose-response studies in cells in culture), the “reduced potency in suppression of cell proliferation” value stood at 5 fold. The IC50 in assay [4] lay within 3 to 5 µM.
